# Reference: patent US8906909B2 (Curis, Inc., priority 2009, dated 2014)
# Tested on: HDACs (HeLa cell nuclear extracts)
# Experiment: HDAC enzymatic activity, Biomol Color de Lys system
# Type: biochemical
# Description: (e) An In Vitro Assay which Determines the Ability of a Test Compound to Inhibit HDAC Enzymatic Activity.
# HDAC inhibitory activity was assessed using the Biomol Color de Lys system (AK-500, Biomol, Plymouth Meeting, Pa.). Briefly, HeLa cell nuclear extracts were used as a source of HDACs. Different concentrations of test compounds were serially diluted in dimethylsulphoxide (DMSO) and added to HeLa cell nuclear extracts in the presence of a colorimetric artificial substrate. Final assay condition contained 50 mM Tris/Cl, pH 8.0, 137 mM NaCl, 2.7 mM KCl and 1 mM MgCl2. Reactions were carried in room temperature (25° C.) for 1 hour before addition of developer for termination. Relative enzyme activity was measured in the WALLAC Victor II 1420 microplate reader as floorescence intensity (excitation: 350-380 nm; emission: 440-460 nm). Data were analyzed using GraphPad Prism (v4.0a) with a sigmoidal dose response curve fitting for IC50 calculation.
row,Compound,IC50 [µM]
1,CN(Cc1cc2nc(-c3ccc4[nH]ccc4c3)nc(N3CCOCC3)c2s1)c1ncc(C(=O)NO)cn1 [Compound 192],< 0.1
2,CN(Cc1cc2nc(-c3ccc4c(c3)CCN4)nc(N3CCOCC3)c2s1)c1ncc(C(=O)NO)cn1 [Compound 193],< 0.1
3,O=C(NO)c1ccc(CNCc2cc3nc(-c4cccc5[nH]ncc45)nc(N4CCOCC4)c3s2)cc1 [Compound 203],0.1 to 1
4,O=C(/C=C/c1ccc(CNCc2cc3nc(-c4cccc5[nH]ncc45)nc(N4CCOCC4)c3s2)cc1)NO [Compound 204],0.1 to 1
5,CN(Cc1cc2nc(-c3ccc(N)cc3)nc(N3CCOCC3)c2s1)c1ccc(C(=O)NO)cc1 [Compound 206],< 0.1
6,Nc1ccc(-c2nc(N3CCOCC3)c3sc(CN4CCN(c5ncc(C(=O)NO)cn5)CC4)cc3n2)cc1 [Compound 207],< 0.1
7,Nc1ccc(-c2nc(N3CCOCC3)c3sc(CNCc4ccc(C(=O)NO)cc4)cc3n2)cc1 [Compound 209],< 0.1
8,Nc1ccc(-c2nc(N3CCOCC3)c3sc(CNCc4ccc(/C=C/C(=O)NO)cc4)cc3n2)cc1 [Compound 210],0.1 to 1
9,CC(c1cc2nc(-c3ccc(N)cc3)nc(N3CCOCC3)c2s1)N(C)c1ncc(C(=O)NO)cn1 (stereo not drawn) [Compound 214],< 0.1
10,CCN(Cc1cc2nc(-c3ccc(N)cc3)nc(N3CCOCC3)c2s1)c1ncc(C(=O)NO)cn1 [Compound 215],< 0.1
11,O=C(/C=C/c1cccc(S(=O)(=O)Nc2cc3nc(-c4cccc5[nH]ncc45)nc(N4CCOCC4)c3s2)c1)NO [Compound 216],< 0.1
12,COc1ncc(-c2nc(N3CCOCC3)c3sc(NS(=O)(=O)c4ccc(/C=C/C(=O)NO)cc4)cc3n2)cn1 [Compound 219],< 0.1
13,COc1ncc(-c2nc(N3CCOCC3)c3sc(NS(=O)(=O)c4cccc(/C=C/C(=O)NO)c4)cc3n2)cn1 [Compound 220],< 0.1
14,CNc1ccc(-c2nc(N3CCOCC3)c3sc(NS(=O)(=O)c4ccc(/C=C/C(=O)NO)cc4)cc3n2)cn1 [Compound 223],< 0.1
15,CNc1ccc(-c2nc(N3CCOCC3)c3sc(NS(=O)(=O)c4cccc(/C=C/C(=O)NO)c4)cc3n2)cn1 [Compound 224],< 0.1
16,COc1ccc(-c2nc(N3CCOCC3)c3sc(NCCCCC(=O)NO)cc3n2)cn1 [Compound 230],< 0.1
17,O=C(CCCCNc1cc2nc(-c3cc(O)ccc3F)nc(N3CCOCC3)c2s1)NO [Compound 231],< 0.1
18,Nc1ccc(-c2nc(N3CCOCC3)c3sc(CN(CCO)c4ncc(C(=O)NO)cn4)cc3n2)cn1 [Compound 235],< 0.1
19,CNc1ccc(-c2nc(N3CCOCC3)c3sc(C(C)(C)N(C)c4ncc(C(=O)NO)cn4)cc3n2)cn1 [Compound 241],< 0.1
20,CNc1ccc(-c2nc(N3CCOCC3)c3sc(N(C)c4ncc(C(=O)NO)cn4)cc3n2)cn1 [Compound 243],0.1 to 1

row,Compound,IC50 [µM]
1,CNc1ccc(-c2nc(N3CCOCC3)c3sc(CN(CCO)c4ncc(C(=O)NO)cn4)cc3n2)cn1 [Compound 245],< 0.1
2,"COc1ccc(-c2nc(N3CCOCC3)c3sc(C(C)N(C)c4ncc(C(=O)NO)cn4)cc3n2)cn1 (stereo not drawn) [Compound 247, N-hydroxy-2-((1-(2-(6-methoxypyridin-3-yl)-4-morpholinothieno[3,2-d]pyrimidin-6-yl)ethyl)(methyl)amino)pyrimidine-5-carboxamide]",< 0.1
3,"COc1ccc(-c2nc(N3CCOCC3)c3sc(C(C)(C)Nc4ncc(C(=O)NO)cn4)cc3n2)cn1 [Compound 250, N-Hydroxy-2-(2-(2-(6-methoxypyridin-3-yl)-4-morpholinothieno[3,2-d]pyrimidin-6-yl)propan-2-ylamino)pyrimidine-5-carboxamide]",< 0.1
4,COc1ccc(-c2nc(N3CCOCC3)c3sc(Nc4ncc(C(=O)NO)cn4)cc3n2)cn1 [Compound 253],0.1 to 1
5,CN(Cc1cc2nc(-c3ccc(O)nc3)nc(N3CCOCC3)c2s1)c1ncc(C(=O)NO)cn1 [Compound 254],< 0.1
6,CN(Cc1cc2nc(-c3ccc(OCc4ccccc4)nc3)nc(N3CCOCC3)c2s1)c1ncc(C(=O)NO)cn1 [Compound 260],< 0.1
7,COc1ncc(-c2nc(N3CCOCC3)c3sc(C(C)(C)N(C)c4ncc(C(=O)NO)cn4)cc3n2)cn1 [Compound 264],< 0.1
8,COc1ccc(-c2nc(N3CCOCC3)c3sc(CN(CCO)c4ncc(C(=O)NO)cn4)cc3n2)cn1 [Compound 265],< 0.1
9,CN(Cc1cc2nc(-c3cnc(OCc4ccccc4)nc3)nc(N3CCOCC3)c2s1)c1ncc(C(=O)NO)cn1 [Compound 266],< 0.1
10,"CC(C)(Nc1ncc(C(=O)NO)cn1)c1cc2nc(-c3ccc(N)cc3)nc(N3CCOCC3)c2s1 [Compound 269, 2-(2-(2-(4-Aminophenyl)-4-morpholinothieno[3,2-d]pyrimidin-6-yl)propan-2-ylamino)-N-hydroxypyrimidine-5-carboxamide]",< 0.1
11,CN(c1ncc(C(=O)NO)cn1)C(C)(C)c1cc2nc(-c3ccc(N)cc3)nc(N3CCOCC3)c2s1 [Compound 270],< 0.1
12,CN(c1ncc(C(=O)NO)cn1)c1cc2nc(-c3ccc(N)cc3)nc(N3CCOCC3)c2s1 [Compound 272],< 0.1
13,Nc1ccc(-c2nc(N3CCOCC3)c3sc(Nc4ncc(C(=O)NO)cn4)cc3n2)cc1 [Compound 273],0.1 to 1
14,Nc1ccc(-c2nc(N3CCOCC3)c3sc(CN(CCO)c4ncc(C(=O)NO)cn4)cc3n2)cc1 [Compound 274],< 0.1
15,Nc1ccc(-c2nc(N3CCOCC3)c3sc(CN(CCO)c4ncc(C(=O)NO)cn4)cc3n2)cc1F [Compound 277],< 0.1
16,"CN(Cc1cc2nc(-c3ccc(N)cc3F)nc(N3CCOCC3)c2s1)c1ncc(C(=O)NO)cn1 [Compound 283, 2-{[2-(4-Amino-2-fluoro-phenyl)-4-morpholin-4-yl-thieno[3,2-d]pyrimidin-6-ylmethyl]-methyl-amino}-pyrimidine-5-carboxylic acid hydroxyamide]",< 0.1
17,CC(C)C(=O)Nc1ccc(-c2nc(N3CCOCC3)c3sc(CN(C)c4ncc(C(=O)NO)cn4)cc3n2)cc1 [Compound 286],< 0.1
18,CC(C)OC(=O)Nc1ccc(-c2nc(N3CCOCC3)c3sc(CN(C)c4ncc(C(=O)NO)cn4)cc3n2)cc1 [Compound 287],< 0.1
19,CN(Cc1cc2nc(-c3cccc(NS(C)(=O)=O)c3)nc(N3CCOCC3)c2s1)c1ncc(C(=O)NO)cn1 [Compound 288],< 0.1
20,CN(Cc1cc2nc(-c3cccc(S(=O)(=O)CCO)c3)nc(N3CCOCC3)c2s1)c1ncc(C(=O)NO)cn1 [Compound 291],< 0.1

row,Compound,IC50 [µM]
1,C/C(=N/O)c1ccc(F)c(-c2nc(N3CCOCC3)c3sc(CN(C)c4ncc(C(=O)NO)cn4)cc3n2)c1 [Compound 298],< 0.1
2,C/C(=N/O)c1cccc(-c2nc(N3CCOCC3)c3sc(CN(C)c4ncc(C(=O)NO)cn4)cc3n2)c1 [Compound 299],< 0.1
3,CC(=O)c1cccc(-c2nc(N3CCOCC3)c3sc(CN(C)c4ncc(C(=O)NO)cn4)cc3n2)c1 [Compound 300],< 0.1
4,CC(=O)c1ccc(F)c(-c2nc(N3CCOCC3)c3sc(CN(C)c4ncc(C(=O)NO)cn4)cc3n2)c1 [Compound 301],< 0.1
5,CN(Cc1cc2nc(-c3cccc(C(C)(C)O)c3)nc(N3CCOCC3)c2s1)c1ncc(C(=O)NO)cn1 [Compound 302],< 0.1
6,Nc1ccc(-c2nc(N3CCOCC3)c3sc(S(=O)(=O)NCC4CCN(c5ncc(C(=O)NO)cn5)CC4)cc3n2)cc1 [Compound 309],0.1 to 1
7,Cc1ncc(-c2nc(N3CCOCC3)c3sc(CN(C)c4ncc(C(=O)NO)cn4)cc3n2)s1 [Compound 311],< 0.1
8,Cc1ncc(-c2nc(N3CCOCC3)c3sc(CN(CCO)c4ncc(C(=O)NO)cn4)cc3n2)s1 [Compound 312],< 0.1
9,Cn1cc(-c2nc(N3CCOCC3)c3sc(CN(CCO)c4ncc(C(=O)NO)cn4)cc3n2)cn1 [Compound 313],< 0.1
10,CN(Cc1cc2nc(-c3cccc4[nH]c(=O)[nH]c34)nc(N3CCOCC3)c2s1)c1ncc(C(=O)NO)cn1 [Compound 314],< 0.1
11,CN(Cc1cc2nc(-c3cccc4[nH]c(=S)[nH]c34)nc(N3CCOCC3)c2s1)c1ncc(C(=O)NO)cn1 [Compound 315],< 0.1
12,CN(Cc1cc2nc(-c3cccc4[nH]c(=O)sc34)nc(N3CCOCC3)c2s1)c1ncc(C(=O)NO)cn1 [Compound 317],< 0.1
13,CCCc1nc2cc(/C=C/C(=O)NO)ccc2n1CCN(C)Cc1cc2nc(-c3ccc(NC)nc3)nc(N3CCOCC3)c2s1 [Compound 322],0.1 to 1
14,CCCc1nc2cc(/C=C/C(=O)NO)ccc2n1CCNCc1cc2nc(-c3ccc(NC)nc3)nc(N3CCOCC3)c2s1 [Compound 323],0.1 to 1
15,CCCc1nc2cc(/C=C/C(=O)NO)ccc2n1CCN(C)Cc1cc2nc(-c3ccc(N)cc3)nc(N3CCOCC3)c2s1 [Compound 324],0.1 to 1
16,CCCc1nc2cc(/C=C/C(=O)NO)ccc2n1CCNCc1cc2nc(-c3ccc(N)cc3)nc(N3CCOCC3)c2s1 [Compound 325],0.1 to 1
17,Cn1c(CNCc2cc3nc(-c4ccc(N)cc4)nc(N4CCOCC4)c3s2)nc2cc(/C=C/C(=O)NO)ccc21 [Compound 326],0.1 to 1
18,CN(Cc1cc2nc(-c3ccc(N)cc3)nc(N3CCOCC3)c2s1)Cc1nc2cc(/C=C/C(=O)NO)ccc2n1C [Compound 327],0.1 to 1
19,CNc1ccc(-c2nc(N3CCOCC3)c3sc(CNCc4nc5cc(/C=C/C(=O)NO)ccc5n4C)cc3n2)cn1 [Compound 328],0.1 to 1
20,CNc1ccc(-c2nc(N3CCOCC3)c3sc(CN(C)Cc4nc5cc(/C=C/C(=O)NO)ccc5n4C)cc3n2)cn1 [Compound 329],0.1 to 1
